Test results taken from patent publication US20100034762A1, “Novel enrichment methods for gallic acid esters including 1-O-galloy1-bata-D-glucose and mucic acid gallates medicaments, therapeutic applications and methods of treatment thereof” (priority 2008, published 2010).

Key:
[1] = DPPH scavenging
[2] = Oxygen Radical Absorbance Capacity (ORAC); conditions: Trolox equivalents

| Compound | DPPH IC50 [1] | ORAC (μmol TE/gm) [2] |
| --- | --- | --- |
| O=C(O)c1cc(O)c(O)c(O)c1 [Gallic acid, gallic acid] | 0.32 µg/mL | 6712 μmol TE/gm |
| O=C1O[C@H]([C@@H](O)CO)C(O)=C1O [Vitamin C, Ascorbic acid] | 1.93 µg/mL | 3400 μmol TE/gm |
